Results from US20070287752A1, “Ophthalmic Compositions Comprising A Branched, Glycerol Compound” (priority 2006, published 2007).

Assays:
[1] = system: Candida albicans (ATCC 10231); assay: Preservative/disinfectant system efficacy testing (log reduction); type: cell-based
Method: (§1) The ophthalmic compositions are evaluated in accordance with specific procedures outlined by the US Food & Drug Administration and the International Organization for Standardization for the testing of microbiocidal efficacy.

[2] = system: Gram-positive bacteria such as Micrococcus luteus, Corynebacterium aquaticum, Corynebacteriumflavescens, Corynebacterium callunae, and Corynebacterium nephredi; conditions: cited from earlier work
[3] = system: Pseudomonas aeruginosa, Staphylococcus aureus, Serratia marcescens, Candida albicans and Fusarium solani; conditions: biocidal data from Examples 1, 2 and 3
Method: as §1

Structure (SMILES): CCCCC(CC)COCC(O)CO (stereo not shown) [EHOPD, 3-[(2-ethylhexyl)oxy]-1,2-propanediol]
- log reduction C. albicans ([1]; 1 hr, Table 5A multi-purpose lens care solution, 10% organic soil, disinfectant concentrations as in label): 2.1
- log reduction C. albicans ([1]; 1 hr, phosphate buffered saline, 10% organic soil, concentrations as in label (Table 4)): >5.0
- log reduction C. albicans ([1]; 4 hr, Table 5A multi-purpose lens care solution, 10% organic soil, disinfectant concentrations as in label): 2.8
- log reduction C. albicans ([1]; 4 hr, phosphate buffered saline, 10% organic soil, concentrations as in label (Table 4)): >5.0
- log reduction C. albicans ([1]; EHOPD 0.0001 wt %, 1 hr, borate buffered saline, 10% organic soil): 2.3
- log reduction C. albicans ([1]; EHOPD 0.0001 wt %, 1 hr, phosphate buffered saline, 10% Organic Soil): 2.3
- log reduction C. albicans ([1]; EHOPD 0.0001 wt %, 4 hr, borate buffered saline, 10% organic soil): 2.3
- log reduction C. albicans ([1]; EHOPD 0.0001 wt %, 4 hr, phosphate buffered saline, 10% Organic Soil): 2.3
- log reduction C. albicans ([1]; EHOPD 0.001 wt %, 1 hr, borate buffered saline, 10% organic soil): 2.3
- log reduction C. albicans ([1]; EHOPD 0.001 wt %, 1 hr, phosphate buffered saline, 10% Organic Soil): 2.3
- log reduction C. albicans ([1]; EHOPD 0.001 wt %, 4 hr, borate buffered saline, 10% organic soil): 2.3
- log reduction C. albicans ([1]; EHOPD 0.001 wt %, 4 hr, phosphate buffered saline, 10% Organic Soil): 2.3
- log reduction C. albicans ([1]; EHOPD 0.01 wt %, 1 hr, Table 3A multi-purpose lens care formulation, 10% organic soil): 2.0
- log reduction C. albicans ([1]; EHOPD 0.01 wt %, 1 hr, borate buffered saline, 10% organic soil): 2.3
- log reduction C. albicans ([1]; EHOPD 0.01 wt %, 1 hr, phosphate buffered saline, 10% Organic Soil): 2.3
- log reduction C. albicans ([1]; EHOPD 0.01 wt %, 4 hr, Table 3A multi-purpose lens care formulation, 10% organic soil): 2.0
- log reduction C. albicans ([1]; EHOPD 0.01 wt %, 4 hr, borate buffered saline, 10% organic soil): 2.3
- log reduction C. albicans ([1]; EHOPD 0.01 wt %, 4 hr, phosphate buffered saline, 10% Organic Soil): 2.3
- log reduction C. albicans ([1]; EHOPD 0.1 wt %, 1 hr, Table 3A multi-purpose lens care formulation, 10% organic soil): 2.0
- log reduction C. albicans ([1]; EHOPD 0.1 wt %, 1 hr, borate buffered saline, 10% organic soil): 5.4
- log reduction C. albicans ([1]; EHOPD 0.1 wt %, 1 hr, phosphate buffered saline, 10% Organic Soil): 3.8
- log reduction C. albicans ([1]; EHOPD 0.1 wt %, 4 hr, Table 3A multi-purpose lens care formulation, 10% organic soil): 2.0
- log reduction C. albicans ([1]; EHOPD 0.1 wt %, 4 hr, borate buffered saline, 10% organic soil): >5.7
- log reduction C. albicans ([1]; EHOPD 0.1 wt %, 4 hr, phosphate buffered saline, 10% Organic Soil): >5.7
- log reduction C. albicans ([1]; EHOPD 0.15 wt %, 1 hr, Table 3A multi-purpose lens care formulation, 10% organic soil): 2.0
- log reduction C. albicans ([1]; EHOPD 0.15 wt %, 4 hr, Table 3A multi-purpose lens care formulation, 10% organic soil): 2.0
- log reduction C. albicans ([1]; EHOPD 0.25 wt %, 1 hr, Table 3A multi-purpose lens care formulation, 10% organic soil): 2.0
- log reduction C. albicans ([1]; EHOPD 0.25 wt %, 4 hr, Table 3A multi-purpose lens care formulation, 10% organic soil): 2.0
- log reduction C. albicans ([1]; EHOPD 0.50 wt %, 1 hr, Table 3A multi-purpose lens care formulation, 10% organic soil): 2.0
- log reduction C. albicans ([1]; EHOPD 0.5 wt %, 1 hr, borate buffered saline, 10% organic soil): 5.1
- log reduction C. albicans ([1]; EHOPD 0.5 wt %, 1 hr, phosphate buffered saline, 10% Organic Soil): 3.8
- log reduction C. albicans ([1]; EHOPD 0.50 wt %, 4 hr, Table 3A multi-purpose lens care formulation, 10% organic soil): 3.1
- log reduction C. albicans ([1]; EHOPD 0.5 wt %, 4 hr, borate buffered saline, 10% organic soil): >5.7
- log reduction C. albicans ([1]; EHOPD 0.5 wt %, 4 hr, phosphate buffered saline, 10% Organic Soil): >5.7
- log reduction C. albicans ([1]; EHOPD 0.75 wt %, 1 hr, Table 3A multi-purpose lens care formulation, 10% organic soil): 4.2
- log reduction C. albicans ([1]; EHOPD 0.75 wt %, 4 hr, Table 3A multi-purpose lens care formulation, 10% organic soil): >5.5
- log reduction C. albicans ([1]; EHOPD 1.0 wt %, 1 hr, Table 3A multi-purpose lens care formulation, 10% organic soil): >5.5
- log reduction C. albicans ([1]; EHOPD 1.0 wt %, 4 hr, Table 3A multi-purpose lens care formulation, 10% organic soil): >5.5
- antimicrobial activity (known, in words) [2]: exhibit antimicrobial activity against a variety of Gram-positive bacteria
- biocidal activity (in words) [3]: significant activity against all of the microorganisms in the study
